Test results: US20240342298A1, “METHODS OF TREATING TUMORS BY USING MOLECULAR CONSTRUCT” (Immunwork Inc., priority 2023, published 2024)

Key:
U266-CD38- cells = test: alamarBlue cell viability assay, U266-CD38- cells; assay type: cell-based; details: 5 days, FIG. 12F
Method: (§1) Briefly, H929, U266-CD38^−, MM.1S, and Daudi cells were seeded at 5,000 cells/well in 96-well plates and co-cultured with fresh medium containing different test articles with the indicated concentrations at 37° C. for 5 hours, 1 day, 3 days, or 5 days. The viabilities of the cells were determined by alamarBlue™ cell viability reagent. About 10 μl alamarBlue™ cell viability reagent was added to the cells with a final concentration of 10% v/v, followed by incubating at 37° C. for 1.5 hours. The fluorescence was measured on a microplate reader in arbitrary fluorescent units following excitation at 560 nm and emission at 590 nm.
(§2) H929 cells were incubated for 5 hours, 1 day, 3 days, or 5 days (FIGS. 12A-12D), and MM.1S, U266-CD38-, and Daudi cells were incubated for 5 days (FIGS. 12E-12G). Then, cell viability was determined.

H929 cells = test: alamarBlue cell viability assay, H929 cells; assay type: cell-based, human
Method: as §1, §2

[1] = HPLC analysis after 5-day incubation in PBS or RPMI medium without cells; assay type: physicochemical; details: 1 μM in PBS, 37° C., 5 days
Method: The total run time was 45 minutes.
(Panels (A) and (D) of FIG. 8B).

MM.1S cells = test: alamarBlue cell viability assay, MM.1S cells; assay type: cell-based, human
Method: as §1, §2

H929 tumors [2] = test: H929 xenograft tumor model (tumors 150±20 mm^3); assay type: in vivo, NOD-SCID mice; details: 28 days
Method: (§3) To generate subcutaneous tumors, 2×10^7 H929 cells in PBS were mixed with 50% (v/v) extracellular matrix gel and injected subcutaneously into the flanks of NOD-SCID mice. Tumor size and body weight were recorded every 2-3 days. Volumes of subcutaneously xenografted tumors in vivo were determined using an external caliper, where tumor volume was calculated by the modified ellipsoid formula, ½×(length×width×width). […] At the end of experiments, tumors were collected and weighed. Statistical analysis was performed with Student t test and statistical differences between groups were analyzed by one-way ANOVA with Bonferroni's multiple comparison post-tests.

H929 tumors [3] = test: H929 xenograft tumor model, pilot study (tumors 115±15 mm^3); details: single dose 20 nmol/kg i.p. 7 days post-transplantation, measured for 21 days
Method: as §3
The tumors from all mice were excised and weighed on day 21 post drug administration.

Compound	killing effect (U266-CD38- cells)	cell killing (H929 cells; at doses >10 μM)	HPLC peaks after long-term incubation (hydrolysis) [1]	cell killing (MM.1S cells; at doses >10 μM)	tumor growth compared to PBS (H929 tumors [2]; daily i.p. injections)	effect of cell death (H929 cells; even at doses >20 μM)	change of tumor sizes compared to PBS (H929 tumors [3])	effect of cell death (MM.1S cells; even at doses >20 μM)	tumor growth compared to PBS (H929 tumors [2]; single dose 20 nmol/kg on day 14 after transplantation)
Nc1cccc2c1CN(C1CCC(=O)NC1=O)C2=O (stereo not shown) [lenalidomide]	some killing effect at high concentrations	only weak killing	two additional peaks (p2 and p1) respectively corresponding to its two hydrolyzed forms	only weak killing	inhibited tumor growth	–	–	–	–
daratumumab	did not possess any killing effect	–	–	–	–	no effect of cell death	could only slow down tumor growth	no effect of cell death	inhibited tumor growth
